Source: patent publication US6509380B1, “Method of treating iron overload with acetaminophen” (Marshall University Research Corporation, priority 2001, dated 2003)

Legend:
[1] = Toxicity of acetaminophen in iron overloaded animals versus animals with normal iron levels; format: in vivo; conditions: multiple tests, no details given
Description: It was initially believed that acetaminophen would be more toxic in iron overloaded animals than in animals having normal iron levels.

iron-overloaded gerbils = assay: Iron-overload model in Mongolian gerbils (iron dextran ip), treatment with acetaminophen; format: in vivo, Mongolian gerbil
Description: Female Mongolian gerbils were divided into groups: positive iron control (iron injections given), iron-treated (injections of iron and acetaminophen), negative iron controls (no iron given), and treatment controls (injections of the investigational agent, only). Gerbils designated to receive iron were iron overloaded by a series of intraperitoneal (ip) injections of iron dextran during a two-month period of time. Treatments were initiated one month after completion of iron overloading and continued for one additional month.
Electrocardiograms (ECGs) were done on gerbils in all four groups, two months and again three months after completion of iron overloading. Gerbils were autopsied five months after completion of iron overloading and resulting stained tissue slides were evaluated by light microscopy. Livers and whole hearts were obtained from gerbils in control and iron-overloaded groups and weighed. Whole hearts and weighed liver samples were acid digested and measured for total iron content.

CC(=O)Nc1ccc(O)cc1 [acetaminophen]
toxicity in animals having an iron overload compared with animals having normal iron levels [1]: less toxic in animals having an iron overload than in animals having normal iron levels | premature ventricular complexes (EKG findings) (iron-overloaded gerbils; ECGs two and three months after completion of iron overloading, four of 10 untreated iron-overloaded gerbils (40%) showed them): not in animals from the other three groups | iron-induced cardiac and hepatic hypertrophy (heart weights, heart/total body weight ratios, liver weights, liver/total body weight ratios) (iron-overloaded gerbils; autopsies, weight data and histological evaluations): effectively combats iron-induced cardiac and hepatic hypertrophy | reduction of cardiac iron (ICP-AES tissue iron measurement) (iron-overloaded gerbils; iron-overloaded female gerbils, versus untreated iron-overloaded animals, almost entirely from cardiomyocytes, less from cardiac macrophages, P<0.005): over 40% | reduction in liver iron (ICP-AES tissue iron measurement) (iron-overloaded gerbils; iron-overloaded female gerbils, versus untreated iron-overloaded animals, not statistically significant): 17% | accumulations of iron in the bone marrow, proximal renal tubules, heart and numerous other organs and tissues (iron-overloaded gerbils; stained tissue slides, light microscopy, less effect in the livers): greatly reduced accumulations of iron | deaths (iron-overloaded gerbils; within 5 months after iron overloading, eight of 20 untreated iron-overloaded gerbils died): No deaths
